Laboratory results: patent US20100021945A1, “DETERMINATION OF CHANGES IN CONCENTRATION” (JACOBS UNIVERSITY BREMEN GGMBH, priority 2006, published 2010)

Tests used:
arginase = target: T1, arginase (Homo sapiens, UniProt P05089); test: Arginase inhibitor screening, Hill analysis of fluorescence (DBO-amine/calixarene displacement assay); format: biochemical; conditions: 0.5 mM arginine, 16 μg/ml arginase, water pH 9.5, 100 μM DBO-amine, 200 μM p-sulphonato-calix[4]arene, 6 min incubation
T1 sequence (P05089 1-322): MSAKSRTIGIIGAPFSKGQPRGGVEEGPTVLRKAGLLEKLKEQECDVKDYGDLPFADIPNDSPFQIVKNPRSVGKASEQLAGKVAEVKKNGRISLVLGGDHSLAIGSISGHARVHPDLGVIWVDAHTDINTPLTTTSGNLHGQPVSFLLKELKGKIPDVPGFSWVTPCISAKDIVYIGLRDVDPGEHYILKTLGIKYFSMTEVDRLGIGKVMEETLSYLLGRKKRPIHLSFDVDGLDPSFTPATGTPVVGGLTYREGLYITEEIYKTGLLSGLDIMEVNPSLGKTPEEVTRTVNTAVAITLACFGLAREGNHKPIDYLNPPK
Experimental: What was selected as a fluorescent dye was 1-aminomethyl-2,3-diazabicyclo[2.2.2]oct-2-ene (101, DBO-amine) and p-sulphonato-calix[4]arene (a cation receptor) was used as the macrocycle, the fluorescence of the DBO-amine 101 being quenched by the calixarene.
The reaction was performed in the presence of 100 μM of the fluorescent dye DBO-amine and 200 μM of p-sulphonato-calix[4]arene in water at a pH of 9.5.
For this purpose, 0.5 mM of arginine was reacted with 16 μg/ml of arginase in different concentrations of the respective inhibitors. The solution (water, pH 9.5) also contained 100 μM of DBO-amine and 200 μM of p-sulphonato-calix[4]arene. For the Hill analysis, the intensity of fluorescence was plotted against the logarithm of the inhibitor concentration after an incubation time of 6 minutes.

[1] = Binding constants to the macrocycle by fluorescent dye (DBO-amine) displacement
Experimental: The binding constants were determined in water at a pH of 7 in the presence of 100 μM of DBO-amine and 200 μM of p-sulphonato-calix[4]arene.

[2] = Binding to macrocycle / dapoxyl displacement in the lysine decarboxylase assay; conditions: for binding constant K: cucurbit[7]uril, assay in 10 mM NH4OAc buffer pH 6.0
Excerpt: FIG. 5 is a reaction diagram for the conversion of L-lysine (505, analyte precursor) into cadaverine (503, analyte, removes the fluorescent dye) and CO2 (not shown, most of it escapes from the solution) by L-lysine decarboxylase. Dapoxyl (501) was selected as the fluorescent dye and cucurbit[7]uril (a cation receptor) as the macrocycle, the fluorescence of the dapoxyl (501) being increased by the complexing with cucurbit[7]uril. As a result of conversion of the analyte precursor 505 into the analyte 503, there is a decrease in fluorescence during the enzymatic reaction because more and more dye 501 is removed by the analyte and the increase in the fluorescence of the dapoxyl caused by the macrocycle thus falls off. The cucurbituril acts as a cation receptor which binds the cadaverine analyte 503, which has two positive charges, better than the L-lysine analyte precursor 505, which has a single positive charge (total charge). The schematic representation of the lysine decarboxylase enzyme is again that of the arginase which is used in FIG. 1, because no crystal structure exists for lysine decarboxylase. The representation was produced with the Swiss PdbViewer v3.7 program (http://www.expasy.org/spdbv/).
The reaction was carried out in the presence of 2.5 μM of dapoxyl and 200 μM of cucurbit[7]uril in a 10 mM NH4OAc buffer (pH 6.0). Without any chemical change to the L-lysine, without any radio-active marking, and without any antibodies, the enzymatic reaction could thus be followed easily, directly in solution without any further incubation stages, with the help of a commercially available fluorescence spectrometer (Varian Cary Eclipse, λexc=336 nm, λobs=390 nm in the present case). It can clearly be seen in this case that the binding constants of lysine (K approx. 2000 M^−1) and cadaverine (K>1000000 M^−1) are very different. […] This is not a problem inasmuch as it is generally only the initial speed as it were of an enzymatic reaction which is determined in order to characterise the reaction. […]

Compound	Ki (arginase) [nM]	binding constant K [2]	other results
N[C@@H](CSCCB(O)O)C(=O)O [BEC, S-(2-boronethyl)-L-cysteine]	4900 ± 500	–	–
N=C(N)NCCC[C@H](N)C(=O)O [arginine, L-arginine]	–	–	binding constant K to the macrocycle ([1]; water, pH 7, 100 μM DBO-amine, 200 μM p-sulphonato-calix[4]arene): 3170 ± 130 M⁻¹
NCCCC[C@H](N)C(=O)O [lysine, L-lysine]	–	approx. 2000 M^−1	–
N[C@@H](CCCCB(O)O)C(=O)O [ABH, 2(s)-amino-6-boronohexanoic acid]	1000 ± 100	–	–
NC(N)=O [urea]	–	–	binding constant to the macrocycle (in words) ([1]; uncharged molecule with a cation receptor, binding can be ignored): extremely low binding constant
NCCCCCN [cadaverine]	–	> 1000000 M⁻¹	concentration enough to remove all the fluorescent dye from the macrocycle ([2]; 2.5 μM dapoxyl, 200 μM cucurbit[7]uril, 10 mM NH4OAc buffer pH 6.0): 100 μm
